In the supplement of paper PMC6335503:
± gives the standard deviation of the averaged measurements.

What was measured:
Assay in all cases: cell viability, percent of DMSO control (CellTiter-Glo); higher = more viable cells
Conditions in all cases: 72 h
[1] = system: DFTD cell line T2 (05/2569)
Procedure: (§1)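 Eight-point dose titration of 41 screen hits in triplicate wells on four Tasmanian devil DFTD tumour cell lines (T1-T4) and devil fibroblasts, 384-well plates. Viability was read by CellTiter-Glo (ATP) after 72 h at 37 °C. Percent of control per plate: DMSO wells = 100%, positive-control wells = 0%.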

[2] = system: DFTD cell line T1 (06/2887)
Procedure: as §1

[3] = system: DFTD cell line T3 (06/0368)
Procedure: as §1

[4] = system: DFTD cell line T4 (07/0192)
Procedure: as §1

| Structure (SMILES) | cell viability ([1]; 0.00617 µM) | cell viability ([1]; 0.0185 µM) | cell viability ([1]; 0.0556 µM) | cell viability ([1]; 0.166667 µM) | cell viability ([1]; 0.5 µM) | cell viability ([1]; 1.5 µM) | cell viability ([1]; 4.5 µM) | cell viability ([1]; 13.5 µM) | cell viability ([2]; 0.00617 µM) | cell viability ([2]; 0.0185 µM) | cell viability ([2]; 0.0556 µM) | cell viability ([2]; 0.166667 µM) | cell viability ([2]; 0.5 µM) | cell viability ([2]; 1.5 µM) | cell viability ([2]; 4.5 µM) | cell viability ([2]; 13.5 µM) | cell viability ([3]; 0.00617 µM) | cell viability ([3]; 0.0185 µM) | cell viability ([3]; 0.0556 µM) | cell viability ([3]; 0.166667 µM) | cell viability ([3]; 0.5 µM) | cell viability ([3]; 1.5 µM) | cell viability ([3]; 4.5 µM) | cell viability ([3]; 13.5 µM) | cell viability ([4]; 0.00617 µM) | cell viability ([4]; 0.0185 µM) | cell viability ([4]; 0.0556 µM) | cell viability ([4]; 0.166667 µM) | cell viability ([4]; 0.5 µM) | cell viability ([4]; 1.5 µM) | cell viability ([4]; 4.5 µM) | cell viability ([4]; 13.5 µM) |
| --- | --- | --- | --- | --- | --- | --- | --- | --- | --- | --- | --- | --- | --- | --- | --- | --- | --- | --- | --- | --- | --- | --- | --- | --- | --- | --- | --- | --- | --- | --- | --- | --- |
| COc1cccc2c1C(=O)c1c(O)c3c(c(O)c1C2=O)C[C@@](O)(C(=O)CO)C[C@@H]3O[C@H]1C[C@H](N)[C@@H](O)[C@H](C)O1.Cl | 116 ± 3.2% | 105 ± 38% | 107 ± 8.6% | 79.4 ± 6.3% | 68.9 ± 3.2% | 22.8 ± 5% | -4.77 ± 4% | -10.2 ± 3.1% | 127 ± 20% | 96.8 ± 35% | 94.5 ± 5% | 66.7 ± 14% | 60.6 ± 6.7% | -2.32 ± 3.8% | -3.85 ± 4.9% | -11.8 ± 0.8% | 124 ± 11% | 110 ± 44% | 96.2 ± 12% | 81.9 ± 18% | 63.8 ± 6.6% | 19.3 ± 3.4% | 5.78 ± 4.9% | -4.2 ± 4.2% | 118 ± 30% | 97.7 ± 28% | 89.8 ± 12% | 67.5 ± 13% | 57.2 ± 10% | -4.01 ± 4.5% | -5.27 ± 1.6% | -4.94 ± 4.3% |
| COc1cccc2c1C(=O)c1c(O)c3c(c(O)c1C2=O)C[C@@](O)(C(=O)CO)C[C@@H]3O[C@H]1C[C@H](N)[C@H](O)[C@H](C)O1.Cl | 118 ± 33% | 107 ± 14% | 90.9 ± 19% | 97.9 ± 18% | 60.3 ± 14% | 33.7 ± 8.7% | -0.292 ± 4.4% | -2.07 ± 4.8% | 106 ± 19% | 112 ± 28% | 94.2 ± 8.7% | 95.5 ± 18% | 61.2 ± 8.2% | 32.2 ± 2.5% | 1.1 ± 6.5% | -3.65 ± 5% | 101 ± 18% | 102 ± 5.6% | 97.9 ± 17% | 95.8 ± 19% | 60.3 ± 11% | 45 ± 4.4% | 1.01 ± 0.94% | 2.64 ± 8.3% | 110 ± 16% | 98 ± 4.9% | 89.9 ± 30% | 91.9 ± 4.3% | 43.8 ± 15% | 24.2 ± 7% | -1.02 ± 1.8% | 1.84 ± 5.4% |
| COc1cc2ncnc(Nc3ccc(F)c(Cl)c3)c2cc1NC(=O)/C=C/CN1CCCCC1 | 112 ± 30% | 95.2 ± 46% | 106 ± 12% | 90.6 ± 2.5% | 81.1 ± 22% | 51 ± 8.7% | 49.8 ± 13% | 50.5 ± 13% | 97.4 ± 26% | 108 ± 39% | 94.3 ± 19% | 58.2 ± 6.1% | 36.2 ± 4% | 27.5 ± 6.9% | 30.8 ± 20% | 19.8 ± 14% | 108 ± 16% | 97.5 ± 14% | 91.6 ± 18% | 77.7 ± 1.5% | 39.7 ± 5.3% | 38.3 ± 3.5% | 27.9 ± 7% | -10.9 ± 5.5% | 107 ± 7.5% | 96.2 ± 33% | 88 ± 13% | 77.2 ± 1.9% | 25 ± 6.3% | 26.5 ± 3.8% | 11.7 ± 14% | -11.1 ± 6% |
| CS(=O)(=O)CCNCc1ccc(-c2ccc3ncnc(Nc4ccc(OCc5cccc(F)c5)c(Cl)c4)c3c2)o1.Cc1ccc(S(=O)(=O)O)cc1 | 109 ± 37% | 114 ± 20% | 98.2 ± 27% | 117 ± 23% | 83.3 ± 12% | 44.3 ± 7.7% | 35.8 ± 6.4% | 32.3 ± 14% | 127 ± 30% | 119 ± 34% | 87.5 ± 10% | 102 ± 13% | 46.3 ± 14% | 28.1 ± 1.4% | 24 ± 4.6% | 31.8 ± 14% | 96 ± 14% | 105 ± 4.2% | 99.2 ± 22% | 97.4 ± 13% | 63 ± 14% | 54.1 ± 6% | 42.2 ± 2.4% | 40.8 ± 22% | 102 ± 3.8% | 123 ± 22% | 101 ± 20% | 91.8 ± 9.4% | 62.7 ± 8.4% | 46.1 ± 8% | 22.1 ± 4.5% | 28.7 ± 14% |
